The target in series [1] is T1, human Branched Chain Amino Acid Aminotransferase cytosolic form (hBCATc) (Homo sapiens, UniProt P54687).
T1 construct: inferred from purification on a Ni-charged chelating column with imidazole elution; made in house; host or cells: E. coli BL21(DE3)
T1 sequence (P54687 1-386): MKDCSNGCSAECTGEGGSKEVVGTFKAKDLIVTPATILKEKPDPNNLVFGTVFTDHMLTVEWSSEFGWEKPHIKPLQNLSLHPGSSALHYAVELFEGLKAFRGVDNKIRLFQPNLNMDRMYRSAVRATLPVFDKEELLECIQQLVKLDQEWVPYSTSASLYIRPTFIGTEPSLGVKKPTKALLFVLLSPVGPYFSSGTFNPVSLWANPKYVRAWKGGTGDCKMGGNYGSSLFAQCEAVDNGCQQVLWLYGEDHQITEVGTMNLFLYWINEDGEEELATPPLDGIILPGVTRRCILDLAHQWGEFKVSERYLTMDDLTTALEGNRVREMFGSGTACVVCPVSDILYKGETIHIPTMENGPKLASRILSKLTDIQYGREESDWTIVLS
As to the kind of experiment: In vitro coupled enzyme assay, hBCATc. Type of series: biochemical. The conditions noted are these: 37° C., 25 mM phosphate buffer pH 7.8; coupled glutamate dehydrogenase assay; read-out: hBCATc I50. As for the experimental part:
In vitro enzyme assay—human Branched Chain Amino Acid Aminotransferase cytosolic form (hBCATc) and mitochondrial form (hBCATm) were assayed at 37° C. in 25 mM phosphate buffer pH 7.8. In addition, 2 mM DTT and 12.5 mM EDTA were added to the assay mixture. A coupling enzyme assay was used to monitor the production of glutamate. The formation of NADH from NAD+at […] was followed on a 96-well plate Molecular Devices plate reader. The following components were used in this coupled assay: 4 mM ADP, 1 mM NAD+, 750 μM L-Leucine, 500 μM (α-ketoglutarate, 10 μM pyridoxal phosphate, 1 unit glutamate dehydrogenase, and 1.25 μg of the appropriate BCAT enzyme. Inhibitions by compounds were assayed by adding various concentrations to this coupled assay procedure as a DMSO stock up to a 5% v/v DMSO/buffer ratio. Data is shown in Table 1.
Enzyme Preparation—humanBCATc was expressed in BL21(DE3) cells. A growing culture of cells was induced with 1 mM IPTG at room temperature overnight. These cells were harvested by centrifugation at 10,000 g for 20 minutes. The supernatant was discarded, and the cells were stored at −80° C. until needed. The protein was purified by the following method. The cell paste was resuspended in extraction buffer (0.1 M phosphate, pH 8.0, with 0.01 M Tris-HCL and 5 mM TCEP and then lysed on a French Press at 1000 psi. The lysate was centrifuged at 10,000 g for 15 minutes, and the pellet was discarded. The supernatant was loaded onto a Hitrap Chelating column previously charged with 0.1 M NiSO4 and washed with 3 to 4 column volumes of extraction buffer. The column was then washed with 0.01 Tris, pH 7.5, 10% glycerol, 150 mM NaCl, 5 mM TCEP for two column volumes. The column was then further washed with two column volumes of 0.1 M phosphate, pH 6.0, 0.01 M Tris, 10% glycerol and 750 mM NaCl. Finally, the column was washed with two column volumes of the same buffer plus 50 mM imidazole. The BCAT enzyme was then eluted with the same buffer but with 350 mM imidazole. The eluant was then dialyzed overnight against 10 mM phosphate buffer pH 8.0, 10% glycerol, and 5 mM TCEP. The dialyzed protein was then loaded onto a Q-sepharose column and eluted using a salt gradient. Active fractions were collected and further purified on a Superose-12 column to yield pure BCAT protein.

Data on 17 compounds can be found in patent publication US6632831B2, “Branched chain amino acid-dependent aminotransferase inhibitors and their use in the treatment of neurodegenerative diseases” (Pfizer Inc., priority 2001, dated 2003).

By melting point is commonly meant the temperature of the solid-liquid transition.

Structures are written as SMILES. Values joined by “and” are separate entries in the source; they are usually repeats but may differ in a detail not shown here. Identical values can stand only once.

`CCOC(=O)/C=C1\SC(Nc2c(Cl)cccc2Cl)=NC1=O` (hydrate or solvate) [Example 2, [2-(2,6-Dichloro-phenylamino)-4-oxo-4H-thiazol-5-ylidene]-acetic Acid Ethyl Ester] displayed a melting point of 185 to 185.8 °C.

For `COC(=O)/C=C1\SC(Nc2ccc(Cl)cc2Cl)=NC1=O` [Example 11, [2-(2,4-Dichloro-phenylamino)-4-oxo-4H-thiazol-5-ylidene]-acetic Acid Methyl Ester], the melting point lay in the range of 211.6 to 212.3 °C. The IC50 in series [1] was 30.1 µM.

Turning to `CCNC(=O)/C=C1\SC(Nc2c(Cl)cccc2Cl)=NC1=O` (hydrate or solvate) [Example 7, [2-(2,6-Dichloro-phenylamino)-4-oxo-4H-thiazol-5-ylidene]-N-ethyl-acetamide], the melting point was greater than 250 °C.

For `COC(=O)/C=C1\SC(Nc2c(Cl)cccc2Cl)=NC1=O` (hydrate or solvate) [Example 1, [2-(2,6-Dichloro-phenylamino)-4-oxo-4H-thiazol-5-ylidene]-acetic Acid Methyl Ester], the melting point was in the range of 189.1 to 189.7 °C.

For `COC(=O)/C=C1\SC(Nc2ccccc2C)=NC1=O` (hydrate or solvate) [Example 4, [2-(2-Methyl-phenylamino)-4-oxo-4H-thiazol-5-ylidene]-acetic Acid Methyl Ester], the melting point lay in the range of 200.7 to 201.2 °C.

For `COC(=O)/C=C1\SC(Nc2cc(Cl)ccc2Cl)=NC1=O` [Example 12, [2-(2,5-Dichloro-phenylamino)-4-oxo-4H-thiazol-5-ylidene]-acetic Acid Methyl Ester], the melting point is 198.8 to 199.4 °C. Besides, in series [1], the IC50 turned out to be 27.6 µM.

Compound `CCCNC(=O)/C=C1\SC(Nc2c(Cl)cccc2Cl)=NC1=O` (hydrate or solvate) [Example 8, [2-(2,6-Dichloro-phenylamino)-4-oxo-4H-thiazol-5-ylidene]-N-propyl-acetamide] showed a melting point greater than 230 °C.

In turn, `COC(=O)/C=C1\SC(Nc2cccc(Cl)c2Cl)=NC1=O` [Example 13, [2-(2,3-Dichloro-phenylamino)-4-oxo-4H-thiazol-5-ylidene]-acetic Acid Methyl Ester] returned a melting point of 204 to 204.3 °C. The IC50 in series [1] was found to be 18.7 µM.

The compound `CNC(=O)/C=C1\SC(Nc2c(Cl)cccc2Cl)=NC1=O` (hydrate or solvate) [Example 6, [2-(2,6-Dichloro-phenylamino)-4-oxo-4H-thiazol-5-ylidene]-N-methyl-acetamide] yielded a melting point greater than 230 °C.

For `O=C(O)/C=C1\SC(Nc2c(Cl)cccc2Cl)=NC1=O` [Example 5, [2-(2,6-Dichloro-phenylamino)-4-oxo-4H-thiazol-5-ylidene]-acetic Acid], the melting point is greater than 230 °C. The IC50 in series [1] was 18.6 µM and 13.1 µM.

Compound `CONC(=O)/C=C1\SC(Nc2c(Cl)cccc2Cl)=NC1=O` (hydrate or solvate) [Example 10, [2-(2,6-Dichloro-phenylamino)-4-oxo-4H-thiazol-5-ylidene]-N-methoxy-acetamide] returned a melting point of 204.8 to 205.6 °C.

In turn, `CC(C)(C)OC(=O)/C=C1\SC(Nc2c(Cl)cccc2Cl)=NC1=O` (hydrate or solvate) [Example 3, [2-(2,6-Dichloro-phenylamino)-4-oxo-4H-thiazol-5-ylidene]-acetic Acid Tert-butyl Ester] yielded a melting point greater than 230 °C.

As to `COC(=O)/C=C1\SC(Nc2c(Cl)cc(Cl)cc2Cl)=NC1=O` [Example 14, [2-(2,4,6-Trichloro-phenylamino)-4-oxo-4H-thiazol-5-ylidene]-acetic Acid Methyl Ester], the melting point lay in the range of 241.3 to 241.7 °C. Further, the IC50 in series [1] was found to be 16.6 µM.

`O=C(/C=C1\SC(Nc2c(Cl)cccc2Cl)=NC1=O)NCc1ccccc1` [Example 9, [2-(2,6-Dichloro-phenylamino)-4-oxo-4H-thiazol-5-ylidene]-N-benzyl-acetamide] came in with a melting point of 204.8 to 205.6 °C. Moreover, in series [1], the IC50 was 33 µM and 24 µM.

Consider `CCCNC(=O)/C=C1\SC(Nc2c(Cl)cccc2Cl)=NC1=O` [Example 8, [2-(2,6-Dichloro-phenylamino)-4-oxo-4H-thiazol-5-ylidene]-N-propyl-acetamide], for which the IC50 in series [1] was 35.7 µM and 17.4 µM.

With `COC(=O)/C=C1\SC(Nc2ccccc2Cl)=NC1=O` [Example 15, [2-(2-Chloro-phenylamino)-4-oxo-4H-thiazol-5-ylidene]-acetic Acid Methyl Ester], the melting point lay in the range of 194 to 194.6 °C. Moreover, the IC50 in series [1] was 19.5 µM.

For `CSCCCNC(=O)/C=C1\SC(Nc2c(Cl)cccc2Cl)=NC1=O` [Example 27, 2-[2-(2,6-Dichloro-phenylamino)-4-oxo-4H-thiazol-5-ylidene]-N-(3-methylsulfanyl-propyl)-acetamide], the IC50 in series [1] worked out at 41.2 µM.
